Measurements as given in publication PMC12317126 (Nature Communications, 2025).

Legend:
[1] = target: T1, cystic fibrosis transmembrane conductance regulator (CFTR) (Homo sapiens, UniProt P13569, W401A); assay: inside-out patch-clamp, inhibition kinetics at […]; format: cell-based
T1 construct: C-terminally GFP-fused CFTR in CHO-K1 cells

[2] = target: T2, cystic fibrosis transmembrane conductance regulator (CFTR) (Homo sapiens, UniProt P13569); assay: ATP hydrolysis of purified CFTR (kcat […] to […] per minute at […]); inside-out patch-clamp; format: biochemical
T2 construct: WT human CFTR, PKA-phosphorylated
T2 sequence (P13569 whole entry): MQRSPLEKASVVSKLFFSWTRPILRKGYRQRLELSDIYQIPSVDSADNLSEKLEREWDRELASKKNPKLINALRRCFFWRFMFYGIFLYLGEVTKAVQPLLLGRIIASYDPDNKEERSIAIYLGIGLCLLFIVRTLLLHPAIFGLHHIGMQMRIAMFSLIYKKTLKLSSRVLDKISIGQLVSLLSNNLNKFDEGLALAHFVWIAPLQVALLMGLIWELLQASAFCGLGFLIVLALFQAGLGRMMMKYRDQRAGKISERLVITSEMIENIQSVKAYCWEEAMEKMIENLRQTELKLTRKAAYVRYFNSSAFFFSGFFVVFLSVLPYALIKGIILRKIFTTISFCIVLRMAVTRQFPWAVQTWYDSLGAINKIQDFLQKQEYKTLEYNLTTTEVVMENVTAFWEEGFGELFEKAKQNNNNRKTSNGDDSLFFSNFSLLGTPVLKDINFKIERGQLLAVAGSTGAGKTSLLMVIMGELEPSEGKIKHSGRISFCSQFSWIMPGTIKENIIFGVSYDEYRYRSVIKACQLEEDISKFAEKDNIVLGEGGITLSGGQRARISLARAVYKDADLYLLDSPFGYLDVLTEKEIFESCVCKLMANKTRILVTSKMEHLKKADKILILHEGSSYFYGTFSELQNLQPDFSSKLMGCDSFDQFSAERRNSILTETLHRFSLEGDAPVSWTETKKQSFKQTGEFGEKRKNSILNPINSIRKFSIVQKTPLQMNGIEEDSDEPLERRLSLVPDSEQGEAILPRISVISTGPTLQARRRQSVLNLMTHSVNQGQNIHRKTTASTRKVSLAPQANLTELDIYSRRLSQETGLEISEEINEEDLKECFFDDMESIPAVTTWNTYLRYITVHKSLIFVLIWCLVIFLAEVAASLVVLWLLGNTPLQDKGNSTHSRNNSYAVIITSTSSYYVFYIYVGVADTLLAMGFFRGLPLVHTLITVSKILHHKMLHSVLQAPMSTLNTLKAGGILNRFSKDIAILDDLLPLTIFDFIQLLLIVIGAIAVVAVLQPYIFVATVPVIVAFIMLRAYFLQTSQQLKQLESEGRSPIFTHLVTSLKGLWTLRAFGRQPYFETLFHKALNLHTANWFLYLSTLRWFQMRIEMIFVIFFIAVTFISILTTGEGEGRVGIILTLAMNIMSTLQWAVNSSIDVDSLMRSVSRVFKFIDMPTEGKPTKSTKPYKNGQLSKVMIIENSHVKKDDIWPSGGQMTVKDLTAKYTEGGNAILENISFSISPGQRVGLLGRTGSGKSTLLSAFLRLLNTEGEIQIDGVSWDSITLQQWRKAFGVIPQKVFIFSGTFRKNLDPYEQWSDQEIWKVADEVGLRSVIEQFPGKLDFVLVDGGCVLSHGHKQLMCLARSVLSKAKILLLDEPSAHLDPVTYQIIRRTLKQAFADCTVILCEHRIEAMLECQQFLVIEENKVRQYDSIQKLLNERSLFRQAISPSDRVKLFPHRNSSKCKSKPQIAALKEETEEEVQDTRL

T1 sequence (P13569 whole entry W401A, the tested form may be a part): as the sequence (P13569 whole entry) above, with W401A counted along it

| SMILES | inside-out patch-clamp, inhibition kinetics at 10 μM [1] | inhibition at 10 µM [2] [%] |
| --- | --- | --- |
| Cn1c(=O)c2c(-c3ccccc3)n3c(c2n(C)c1=O)[C@H](c1ccc(Br)o1)Oc1ccc(C(=O)O)cc1-3 [(R)-BPO-27] | 4.5 ± 0.8 s (t1/2 of inhibition at 10 µM) |  |
| O=C(O)c1ccc(/C=C2\SC(=S)N(c3cccc(C(F)(F)F)c3)C2=O)cc1 [CFTRinh-172] |  | 72 |
